In patent US20220152154A1, “GROWTH DIFFERENTIATION FACTOR 15 COMBINATION THERAPY” (Amgen Inc., priority 2019, published 2022):

Assays:
[1] = Food intake measured three consecutive days per week; assay type: in vivo; set-up: key: ns: not significant; *: p < 0.05; **: p < 0.005; ***: p < 0.001; ****: p < 0.0001; settings: male C57Bl/6 DIO mice, 2-way ANOVA with Dunnett's analysis
Protocol: (§1) Male C57Bl/6 DIO mice, 19-20 weeks old (13-14 weeks on high fat diet) at beginning of dosing, were placed into the following treatment groups: Group A—Vehicle, in which the animals were administered vehicle weekly; Group B—Dulaglutide, in which the animals were administered 0.1 mg/kg (2 nmol/kg) of dulaglutide twice per week; Group C—GIPR Ab, in which the animals were administered 5 mg/kg (33 nmol/kg) of antibody 2.63.1 (having a light and heavy chain sequence of SEQ ID NOs: 105 and 106, respectively) weekly and vehicle weekly (the latter being on the alternate dulaglutide dosing day); Group D—GDF15, in which the animals were administered 0.125 mg/kg (1 nmol/kg) of FcΔ10(−)-(G4S)4-GDF15 (SEQ ID NO: 39) (along with its heterodimerization partner, FcΔ10(+,K) (SEQ ID NO: 32)) weekly and vehicle weekly (the latter on the alternate dulaglutide dosing day); Group E—GDF15+Dulaglutide, in which the animals were administered 0.125 mg/kg (1 nmol/kg) of FcΔ10(−)-(G4S)4-GDF15) (along with its heterodimerization partner, FcΔ10(+,K)) weekly and 0.1 mg/kg (2 nmol/kg) of dulaglutide twice per week; Group F—GDF15+GIPR Ab, in which the animals were administered 0.125 mg/kg (1 nmol/kg) of FcΔ10(−)-(G4S)4-GDF15 (along with its heterodimerization partner, FcΔ10(+,K)) weekly and 5 mg/kg (33 nmol/kg) of antibody 2.63.1 weekly. The animals were dosed for 5 weeks with through subcutaneous injection.

[2] = Body weight change in DIO mice treated for 5 weeks; assay type: in vivo; set-up: key to Significance of Body Weight Change: ns: not significant; *: p < 0.05; **: p < 0.005; ***: p < 0.001; ****: p < 0.0001; settings: subcutaneous; for Significance of Body Weight Change: male C57Bl/6 DIO mice, 2-way ANOVA with Dunnett's analysis
Protocol: as §1
Body weight was measured twice per week.

dulaglutide [reference compound]
Significance of Food Intake Assay ([1]; D2): ns | Significance of Food Intake Assay ([1]; D8): ns | Significance of Food Intake Assay ([1]; D9): ns | Significance of Food Intake Assay ([1]; D10): ns | Significance of Food Intake Assay ([1]; D15): ns | Significance of Food Intake Assay ([1]; D16): ns | Significance of Food Intake Assay ([1]; D17): * (p < 0.05) | Significance of Food Intake Assay ([1]; D22): **** (p < 0.0001) | Significance of Food Intake Assay ([1]; D23): ns | Significance of Food Intake Assay ([1]; D24): ns | Significance of Food Intake Assay ([1]; D29): ns | Significance of Food Intake Assay ([1]; D30): ns | Significance of Food Intake Assay ([1]; D31): ns | Significance of Body Weight Change ([2]; D0): ns | Significance of Body Weight Change ([2]; D3): ns | Significance of Body Weight Change ([2]; D7): ns | Significance of Body Weight Change ([2]; D10): ** (p < 0.005) | Significance of Body Weight Change ([2]; D14): ** (p < 0.005) | Significance of Body Weight Change ([2]; D17): **** (p < 0.0001) | Significance of Body Weight Change ([2]; D21): *** (p < 0.001) | Significance of Body Weight Change ([2]; D31): *** (p < 0.001) | Significance of Body Weight Change ([2]; D35): *** (p < 0.001) | Significance of Body Weight Change ([2]; D-4): ns | change in body weight ([2]; five weeks after treatment, DIO mice): −1.96%
